Results: publication PMC5104480 (PLoS ONE, 2016)

Assays:
[1] = tested on: HeLa—UGT1A9 cells; experiment: Glucuronide excretion at different substrate concentrations in HeLa—UGT1A9 cells; format: cell-based; settings: for substrate concentration at which the excretion rate reached a peak: diosmetin or chrysoeriol 1.25-40 μM
Method: (§1) The excretion rates, glucuronides intracellular, Glucuronides excretion, the clearance of efflux transporter (CL) and the fraction of the metabolized dose (fmet) experiments were calculated as described in detail previously.

[2] = target: T1, UGT1A1 (Homo sapiens, UniProt P22309); experiment: Glucuronidation kinetics by human expressed UGT1A1; format: in vitro ADME
T1 construct: purchased BD Biosciences (Woburn, MA, USA)
T1 sequence (P22309 26-533): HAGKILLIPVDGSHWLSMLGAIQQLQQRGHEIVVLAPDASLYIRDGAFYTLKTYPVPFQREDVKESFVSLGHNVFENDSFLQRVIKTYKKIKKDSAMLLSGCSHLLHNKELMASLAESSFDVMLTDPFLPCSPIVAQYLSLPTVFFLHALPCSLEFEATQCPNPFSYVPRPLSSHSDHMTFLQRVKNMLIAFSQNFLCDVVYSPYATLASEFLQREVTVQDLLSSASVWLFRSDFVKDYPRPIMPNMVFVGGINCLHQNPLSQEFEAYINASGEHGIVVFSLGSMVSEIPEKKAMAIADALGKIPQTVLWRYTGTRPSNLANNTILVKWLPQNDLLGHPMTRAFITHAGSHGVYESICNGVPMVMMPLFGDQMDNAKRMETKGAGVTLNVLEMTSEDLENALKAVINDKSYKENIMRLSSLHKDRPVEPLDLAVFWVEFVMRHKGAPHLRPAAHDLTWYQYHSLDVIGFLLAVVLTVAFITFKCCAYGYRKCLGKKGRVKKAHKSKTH
Method: (§2) All metabolism studies in vitro were approved by the First Hospital Affiliated to Shihezi University Research Ethics Committee. The glucuronidation assay was performed as described in previous publications. […] The incubation volumes were 120 μL, and the total organic solvent content was 1%. […] The reactions were initiated by adding UDPGA (3.5 mM) at 37°C and then allowed to stand for 30 min in a water bath. These reactions were terminated by adding 60 μL ice-cold acetonitrile containing the IS (25 nM tilianin). […] All experiments were performed in triplicate. The enzyme kinetic parameters were obtained by fitting kinetic models to the experimental data using GraphPad Prism version 5.04 for Windows (GraphPad Software Inc., San Diego, CA, USA). The best model was selected based on visual inspection of the Eadie-Hofstee plots, the calculated r^2 values, and corrected Akaike’s information criterion. The HLMs or human expressed UGT enzymes were employed for kinetic studies at concentrations ranging from 0.0021 mg/mL to 0.0053 mg/mL. The rates of the glucuronidation were fitted to the following equations: V = Cmetabolite/t×Cprotein Where V (nmol/mg/min) is the rates of the glucuronidation, Cmetabolite (μM) and Cprotein (mg/mL) respectively are the concentration of the metabolite and the reaction protein, t (min) is the reaction time. Model selection was based on visual inspection of Eadie—Hofstee plots and it was reported in our previous study. In brief, if the Eadie—Hofstee plot was linear, formation rates (V) of glucuronides at different substrate concentrations (C) were fitted to the standard Eq (1): V = Vmax×C/Km+C (1) where Km is the Michaelis-Menten constant and Vmax is the maximum rate of glucuronidation. The intrinsic clearance (CLint) was derived by Vmax/Km. […] The intrinsic clearance (CLint) was derived by Vmax1/Km1.

[3] = target: T2, BCRP (Homo sapiens, UniProt Q9UNQ0); experiment: Effect of BCRP inhibitor Ko143 on glucuronide excretion in HeLa—UGT1A9 cells; format: cell-based
T2 construct: endogenous in cells; host or cells: HeLa cells stably transfected with UGT1A9 (from Dr. Ming Hu, University of Houston)
T2 sequence (Q9UNQ0 1-655): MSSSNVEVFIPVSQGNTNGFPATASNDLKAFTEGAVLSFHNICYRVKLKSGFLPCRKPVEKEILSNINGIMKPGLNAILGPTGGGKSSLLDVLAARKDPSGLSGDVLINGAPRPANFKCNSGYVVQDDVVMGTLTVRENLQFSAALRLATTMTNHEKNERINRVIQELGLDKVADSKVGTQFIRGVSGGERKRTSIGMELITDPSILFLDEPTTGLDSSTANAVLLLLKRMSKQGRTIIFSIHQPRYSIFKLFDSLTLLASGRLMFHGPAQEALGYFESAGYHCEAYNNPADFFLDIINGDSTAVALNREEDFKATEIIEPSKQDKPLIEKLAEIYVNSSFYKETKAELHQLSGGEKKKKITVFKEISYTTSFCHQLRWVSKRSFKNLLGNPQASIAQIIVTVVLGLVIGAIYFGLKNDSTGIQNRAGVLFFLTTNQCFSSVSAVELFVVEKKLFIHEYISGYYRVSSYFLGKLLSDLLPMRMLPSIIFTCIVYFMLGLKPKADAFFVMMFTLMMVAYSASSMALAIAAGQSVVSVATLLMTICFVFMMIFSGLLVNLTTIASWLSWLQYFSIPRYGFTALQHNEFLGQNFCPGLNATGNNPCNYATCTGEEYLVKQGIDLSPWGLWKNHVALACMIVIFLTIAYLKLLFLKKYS
Method: as §1

[4] = Glucuronidation kinetics of diosmetin and chrysoeriol by HLMs; format: in vitro ADME, human; settings: human, liver microsomes, pH 7.4, Vmax/Km, formation of the named glucuronide
Method: as §2

[5] = tested on: human liver microsomes (HLMs); experiment: as above; format: in vitro ADME; settings: for Kinetic profile of glucuronide formation: Eadie—Hofstee plots; for Km / Vmax: formation of the named glucuronide from diosmetin or chrysoeriol
Method: as §2

[6] = target: T3, UGT1A9 (Homo sapiens, UniProt O60656); experiment: Glucuronidation by human expressed UGT1A9 (screening and kinetics); format: in vitro ADME; settings: for Kinetic profile of glucuronide formation: Eadie—Hofstee plots; for microsomal CLint: human, expressed (recombinant) human UGT1A9, pH 7.4, Vmax/Km; for Vmax: substrate diosmetin (Dio-3′-G) or chrysoeriol (Chr-7-G)
T3 construct: purchased BD Biosciences (Woburn, MA, USA)
T3 sequence (O60656 26-530): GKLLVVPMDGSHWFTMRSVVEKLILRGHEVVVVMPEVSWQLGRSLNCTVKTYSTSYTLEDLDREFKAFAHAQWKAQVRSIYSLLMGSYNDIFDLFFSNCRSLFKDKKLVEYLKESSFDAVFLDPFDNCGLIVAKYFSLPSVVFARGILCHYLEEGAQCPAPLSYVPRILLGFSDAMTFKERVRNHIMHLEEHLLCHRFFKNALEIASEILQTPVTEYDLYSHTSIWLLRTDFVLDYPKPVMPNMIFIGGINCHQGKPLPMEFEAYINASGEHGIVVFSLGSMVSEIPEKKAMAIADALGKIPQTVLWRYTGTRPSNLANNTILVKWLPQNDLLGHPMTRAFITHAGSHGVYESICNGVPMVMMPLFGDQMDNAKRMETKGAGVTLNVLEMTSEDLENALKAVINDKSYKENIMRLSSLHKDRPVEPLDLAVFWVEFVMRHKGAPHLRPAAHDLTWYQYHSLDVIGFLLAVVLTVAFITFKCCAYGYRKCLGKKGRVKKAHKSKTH
Method: as §2, with “Vmax1/Km1. The method of this study as described in detail previously. […] The incubation conditions were as follows: protein concentration: 0.0053 mg/mL; temperature of water: 37°C; shaker speed: 50 rpm; reaction time: 30 min. After incubation, all samples were pretreated as described above and analyzed by UHPLC—MS/MS.” for “Vmax1/Km1.”

[7] = target: T4, UGT1A6 (Homo sapiens, UniProt P19224); experiment: Glucuronidation by human expressed UGT1A6 (screening and kinetics); format: in vitro ADME
T4 construct: purchased BD Biosciences (Woburn, MA, USA)
T4 sequence (P19224 27-532): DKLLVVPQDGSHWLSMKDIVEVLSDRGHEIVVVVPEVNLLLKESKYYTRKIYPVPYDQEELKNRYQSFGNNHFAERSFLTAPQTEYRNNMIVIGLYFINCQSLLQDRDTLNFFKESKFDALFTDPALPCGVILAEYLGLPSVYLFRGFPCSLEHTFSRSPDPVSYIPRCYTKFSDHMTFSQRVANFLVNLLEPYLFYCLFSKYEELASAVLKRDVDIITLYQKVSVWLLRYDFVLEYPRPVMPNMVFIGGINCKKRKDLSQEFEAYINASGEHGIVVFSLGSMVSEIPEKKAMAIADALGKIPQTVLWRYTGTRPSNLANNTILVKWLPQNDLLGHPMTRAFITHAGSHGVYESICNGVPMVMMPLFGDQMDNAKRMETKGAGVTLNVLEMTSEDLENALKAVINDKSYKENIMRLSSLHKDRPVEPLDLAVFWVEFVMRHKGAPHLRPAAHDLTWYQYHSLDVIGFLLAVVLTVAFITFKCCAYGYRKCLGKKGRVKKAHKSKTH
Method: as §2, with “Vmax1/Km1. The method of this study as described in detail previously. […] After incubation, all samples were pretreated as described above and analyzed by UHPLC—MS/MS.” for “Vmax1/Km1.”

[8] = 5 μM Ko143, 2.5 μM diosmetin or chrysoeriol
[9] = 10 μM Ko143, 2.5 μM diosmetin or chrysoeriol

| Compound | substrate concentration at which fmet reached a peak ([1]; chrysoeriol 1.25-40 μM) [µM] | substrate concentration at which the excretion rate reached a peak [1] [µM] | Kinetic profile of glucuronide formation ([2]; Eadie—Hofstee plots) | microsomal CLint ([2]; human, expressed (recombinant) human UGT1A1, pH 7.4, Vmax/Km) [µL/min/mg] | Vmax ([2]; substrate chrysoeriol) [nmol/mg/min] | increase of total intracellular amount of glucuronide compared with the control [3, 8] [fold] | increase of total intracellular amount of glucuronide compared with the control [3, 9] [fold] | microsomal CLint [4] [µL/min/mg] | Kinetic profile of glucuronide formation [5] | Km [5] [µM] | Vmax [5] [nmol/mg/min] | Kinetic profile of glucuronide formation [6] | microsomal CLint [6] [µL/min/mg] | Vmax [6] [nmol/mg/min] | Kinetic profile of glucuronide formation ([7]; Eadie—Hofstee plots) | microsomal CLint ([7]; human, expressed (recombinant) human UGT1A6, pH 7.4, Vmax/Km) [µL/min/mg] | Vmax ([7]; substrate diosmetin) [nmol/mg/min] |
| --- | --- | --- | --- | --- | --- | --- | --- | --- | --- | --- | --- | --- | --- | --- | --- | --- | --- |
| COc1cc(-c2cc(=O)c3c(O)cc(O)cc3o2)ccc1O[C@@H]1O[C@H](C(=O)O)[C@@H](O)[C@H](O)[C@H]1O [Chr-4′-G, chrysoeriol-4′-O-glucuronide] | 2.5 | 2.5 | substrate inhibition kinetic characteristics | 2260 | 0.63 ± 0.06 | 1.3 | 1.8 | 1270 | substrate inhibition profiles | 0.15 ± 0.03 | 0.20 ± 0.01 |  |  |  |  |  |  |
| COc1cc(-c2cc(=O)c3c(O)cc(O[C@@H]4O[C@H](C(=O)O)[C@@H](O)[C@H](O)[C@H]4O)cc3o2)ccc1O [Chr-7-G, chrysoeriol-7-O-glucuronide] |  | 2.5 |  |  |  | 1.3 | 1.7 | 40 | classic Michaelis—Menten kinetics | 3.83 ± 0.55 | 0.15 ± 0.01 | classic Michaelis-Menten kinetic characteristics | 480 | 0.12 ± 0.01 |  |  |  |
| COc1ccc(-c2cc(=O)c3c(O)cc(O)cc3o2)cc1O[C@@H]1O[C@H](C(=O)O)[C@@H](O)[C@H](O)[C@H]1O [Dio-3′-G, diosmetin-3′-O-glucuronide] |  | 2.5 |  |  |  | 1.3 | 1.8 | 6250 | classic Michaelis—Menten kinetics | 0.19 ± 0.02 | 1.16 ± 0.03 | classic Michaelis-Menten kinetic characteristics | 9520 | 4.27 ± 0.13 |  |  |  |
| COc1ccc(-c2cc(=O)c3c(O)cc(O[C@@H]4O[C@H](C(=O)O)[C@@H](O)[C@H](O)[C@H]4O)cc3o2)cc1O [Dio-7-G, Diosmetin-7-O-glucuronide] |  | 10 |  |  |  | 1.1 | 1.5 | 130 | substrate inhibition profiles | 4.66 ± 0.72 | 0.61 ± 0.05 |  |  |  | substrate inhibition kinetic characteristics | 300 | 0.92 ± 0.06 |
